Entries after “also recorded” stand apart in the source; their conditions may differ. Where two headings read alike, the source gives them in different places.
Legend:
quiescent PBLs = assay: Cytotoxicity in human PBLs, resting; type: cell-based; settings: PBL not stimulated with PHA; 72 h; read-out: IC50 PBLresting
Text: (§1) Human PBLs were obtained from healthy donors by separation on a Lymphoprep^TM (Serumwerk Bernburg AG) gradient and were used for the evaluation of the cytotoxic potential of compounds under study in normal human cells. Buffy coats were obtained from the Blood Transfusion Service, Azienda Ospedaliera of Padova and provided at this institution for research purposes without identifier. The samples were not obtained specifically for this study, and for this reason ethical approval was not required. Informed consent was obtained from blood donors according to Italian law no. 219 (21 October 2005). Data were treated by the Blood Transfusion Service according to Italian law on personal data management “Codice in materia di protezione dati personali” (Testo Unico D.L. Giugno 30, 2003 196).
(§2) After extensive washing with saline solution (BioConcept, Hank’s Buffered Saline Solution), quiescent PBLs were resuspended (1.0 × 10^6 cells/mL) in RPMI-1640 medium supplemented with 10% fetal bovine serum. Cytotoxicity evaluations were conducted also in cultures of proliferating PBLs, stimulated with […] PHA (Irvine Scientific). Both resting and proliferating lymphocytes were seeded in 96-well plates and maintained overnight at 37 °C in a humidified 5% CO2 incubator. Serial (5-fold) dilutions of the tested compounds were added, and viability was determined 72 h later by the resazurin viability assay as described above.

PBL stimulated with PHA = assay: Cytotoxicity in human PBLs stimulated with PHA; type: cell-based; settings: 72 h, read-out: IC50 PBLPHA
Text: as §1, §2

Bovine brain tubulin [1] = assay: Inhibition of tubulin polymerization; type: biochemical
Protocol: (§3) Bovine brain tubulin was purified as described previously. To evaluate the effects of the compounds on tubulin assembly in vitro [35], varying concentrations were preincubated with 10 μM tubulin in 0.8 M monosodium glutamate (pH 6.6) at 30 °C and the reaction mixtures then cooled to 0 °C. After addition of GTP, the mixtures were transferred to 0 °C cuvettes in Beckman Coulter (Brea, CA, USA) DU-7400/DU-7500 recording spectrophotometers equipped with electronic temperature controllers and warmed to 30 °C, and the assembly of tubulin was observed turbidimetrically. […] Inhibition of colchicine binding to tubulin was measured as described before, except that the reaction mixtures contained 0.5 μM tubulin and 5 μM each of [^3H]colchicine and test compound. Only one DEAE-cellulose filter was used per sample, and filtration was by gravity.

Bovine brain tubulin [2] = assay: Inhibition of [3H]colchicine binding to tubulin; settings: tubulin 0.5 µM, [3H]colchicine 5 µM, compound 5 µM
Protocol: as §3

HeLa cells [3] = assay: Cell cycle analysis (PI, flow cytometry); type: cell-based, human; settings: 50 nM, 24 h
Protocol: HeLa cells were seeded at 100,000 cells per well on 6-well tissue culture plates. After 24 h, cells were treated with different test compound concentrations or DMSO for another 24 h. Cells were then fixed and stained with propidium iodide (PI). The fluorescence intensity of 10,000 single-cell events was measured with a Beckman Coulter Cytomics FC500 instrument (Beckman Coulter Italia, Milano, Italy) and the data were analyzed with MultiCycle for Windows software from Phoenix Flow Systems (San Diego, CA, USA).

HeLa cells [4] = assay: Mitochondrial membrane potential (JC-1); type: cell-based, human; settings: Figure 8A representative plot; concentration not given
Protocol: The mitochondrial potential was evaluated in HeLa cells by flow cytometry using the cell membrane permeable cationic dye 5,5′,6,6′-tetrachloro-1,1′,3,3′-tetraethyl-imidacarbocyanine iodide (JC-1) (Molecular Probes) as described previously. The production of ROS was measured in HeLa cells by flow cytometry using 2′,7′-dichlorodihydrofluorescein diacetate (H2DCFDA) (Molecular Probes) as described previously.

HeLa cells [5] = assay: Immunofluorescence labeling of microtubules; type: cell-based, human; settings: 10 nM, 24 h
Protocol: HeLa cells were seeded at 15,000 cells/well in a NuncTM Lab-Tek 8-well Chamber SlideTM System (Thermo Fisher Scientific) and incubated under cell culture conditions for 24 h. The cells were treated with various concentrations of compounds or solvent (DMSO as control) and incubated for another 24 h.
After the pharmacological treatment, cells were rinsed with PBS and fixed with 200 μL of 4% paraformaldehyde in PBS for 15 min at room temperature. Cells were then washed twice with PBS 1X before proceeding with permeabilization and protein saturation using a blocking buffer containing 3% bovine serum albumin and 0.1% Triton X-100. Cells were maintained in the blocking buffer for 30 min at room temperature before performing immunostaining of microtubules. Cells were incubated with a murine monoclonal anti-β tubulin antibody (Sigma-Aldrich, Milano, Italy) overnight at 4 °C.
After three washes with PBS 1X, cells were incubated for 1 h at room temperature in the dark with a secondary antibody conjugated to Alexa FluorTM 488 (Invitrogen, Thermo Fisher Scientific, Waltham, MA, USA)). […]
Alterations in the microtubule cytoskeleton were documented by fluorescence microscopy using a Zeiss LSM 800 with Airyscan Confocal Spectral microscope (100× magnification) (New York, NY, USA). […]

Zebrafish embryos = assay: Acute toxicity assessment in zebrafish embryos; type: in vivo, Danio rerio; settings: for Results (toxicity evaluation) / % Alterations 24 h / % Lethality 24 h / % Alterations 48 h / % Lethality 48 h: 72 hpf embryos
Protocol: Zebrafish embryos at 72 h post fertilization (hpf) were selected for the acute toxicity assay since, at that time, morphogenesis and function of the primary organ systems are complete. Embryos at 72 hpf were assayed in a 12-well plate, 20 larvae/well for each experimental condition.
The zebrafish embryos were treated as described in the Biological Results and Discussion section using drug concentrations selected on the basis of in vitro experimental data. The drugs were added directly to the fish water from 10 mM stock solutions in DMSO of tested compounds. […] CA-4P was employed as the reference compound.
The experiment was carried out at a constant temperature (28.5 °C) in the dark, and at 24 and 48 h time points, zebrafish were subjected to visual observation and image acquisition under a stereomicroscope (Nikon SMZ745T; Nikon, Japan). The number of dead zebrafish embryos for each condition was recorded, and morphological defects were evaluated. The survival rate (%) after treatment was calculated.

## Cc1cc(Nc2ccc(F)cc2)n2nc(NCCCc3ccccc3)nc2n1 [Compound 8q]
Quiescent PBLs
  IC50: > 10000 nM
PBL stimulated with PHA
  IC50: > 10000 nM
Bovine brain tubulin [1]
  fold more potent than CA-4, tubulin polymerization: about 2 fold
Bovine brain tubulin [1]; read-out: IC50 tubulin polymerization
  IC50: 520 nM
Bovine brain tubulin [1]; tubulin at 10 μM, read-out: Tubulin Assembly IC50 ± SD
  IC50: 390 ± 20 nM
Bovine brain tubulin [2]
  Colchicine Binding % Inhibition ± SD: 88 ± 0.8%
HeLa cells [3]
  cells arrested in G2/M: 80%
HeLa cells [4]
  Monomers (%) (monomeric JC-1): 64.4%
HeLa cells [5]
  microtubule network organization: microtubules were disorganized, and the cells developed a spherical morphology
Zebrafish embryos; 100 nM and 1 μM, 24 and 48 h
  death, morphologic changes, developmental abnormalities: no death and no morphologic changes or developmental abnormalities; also recorded: No abnormal phenotypes or developmental defects were seen
Zebrafish embryos; 100 nM
  Results (toxicity evaluation): Not toxic
  % Alterations 24 h: 0%
  % Lethality 24 h: 0%
  % Alterations 48 h: 0%
  % Lethality 48 h: 0%
Zebrafish embryos; 1 μM
  Results (toxicity evaluation): Not toxic
  % Alterations 24 h: 0%
  % Lethality 24 h: 0%
  % Alterations 48 h: 0%
  % Lethality 48 h: 0%
